# In PubChem BioAssay (NCI):
#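 Interpolation was linear, between the two tested concentrations surrounding the appropriate level; five concentrations were tested over 48 hours in 96-well plates. GI50 = concentration required for 50% inhibition of growth. At the TGI there is no net growth.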
# Tests used:
# Experiment in all cases: growth of human tumour cells (NCI), 48 h
# [1] = tested on: MOLT-4 leukemia
# [2] = tested on: MDA-MB-468 breast
# [3] = tested on: A549 NSCLC
# [4] = tested on: SR leukemia
# [5] = tested on: TK-10 renal
# [6] = tested on: RXF 393 renal
# [7] = tested on: UO-31 renal
# [8] = tested on: HL-60(TB) leukemia
# [9] = tested on: OVCAR-5 ovarian
# [10] = tested on: SN12C renal
# [11] = tested on: CAKI-1 renal
# [12] = tested on: HCT-15 colon
# [13] = tested on: A498 renal
# [14] = tested on: UACC-257 melanoma
# [15] = tested on: SK-MEL-2 melanoma
# [16] = tested on: HCT-116 colon
# [17] = tested on: HS 578T breast
# [18] = tested on: IGROV1 ovarian
# [19] = tested on: NCI-H460 lung
# [20] = tested on: SF-539 CNS
# [21] = tested on: ACHN renal
# [22] = tested on: 786-0 renal
# [23] = tested on: OVCAR-4 ovarian
# [24] = tested on: M14 melanoma
# [25] = tested on: EKVX NSCLC
# [26] = tested on: NCI/ADR-RES ovarian
# [27] = tested on: SNB-75 CNS
# [28] = tested on: U251 CNS
# [29] = tested on: SK-OV-3 ovarian
# [30] = tested on: MDA-MB-435
# [31] = tested on: SK-MEL-28 melanoma
# [32] = tested on: NCI-H522 lung
# [33] = tested on: MDA-MB-231 breast
# [34] = tested on: SNB-19 CNS
# [35] = tested on: HT29 colon
# [36] = tested on: SF-295 CNS
# [37] = tested on: OVCAR-8 ovarian
# [38] = tested on: MALME-3M melanoma
# [39] = tested on: DU-145 prostate
# [40] = tested on: KM12 colon
# [41] = tested on: CCRF-CEM leukemia
# [42] = tested on: MCF7 breast
# [43] = tested on: RPMI-8226 leukemia
# [44] = tested on: HCC-2998 colon
# [45] = tested on: UACC-62 melanoma
# [46] = tested on: HOP-62 NSCLC
# [47] = tested on: NCI-H23 lung
# [48] = tested on: LOX IMVI melanoma
# [49] = tested on: BT-549 breast
# [50] = tested on: T-47D breast
# [51] = tested on: SF-268 CNS
# [52] = tested on: PC-3 prostate
# [53] = tested on: OVCAR-3 ovarian
# [54] = tested on: NCI-H226 lung
# [55] = tested on: SW-620 colon
# [56] = tested on: SK-MEL-5 melanoma
# [57] = tested on: HOP-92 NSCLC
# [58] = tested on: K-562 leukemia
# [59] = tested on: COLO 205 colon
smiles,measurement,setting,value
COc1ccc(CCN2C(=O)/C(=C/c3csc(C#N)n3)SC2=S)cc1,GI50,[1],3.52 µM
same,TGI,[1],53.1 µM
same,GI50,[2],3.03 µM
same,TGI,[2],13.2 µM
same,GI50,[3],21.3 µM
same,TGI,[3],56.1 µM
same,GI50,[4],3.59 µM
same,TGI,[4],32.4 µM
same,GI50,[5],10.7 µM
same,TGI,[5],27.7 µM
same,GI50,[6],10.4 µM
same,TGI,[6],22.1 µM
same,GI50,[7],10.8 µM
same,TGI,[7],22.6 µM
same,GI50,[8],14.5 µM
same,TGI,[8],46.8 µM
same,GI50,[9],15.6 µM
same,TGI,[9],29 µM
same,GI50,[10],12.3 µM
same,TGI,[10],24.8 µM
same,GI50,[11],16.9 µM
same,TGI,[11],31.4 µM
same,GI50,[12],6.19 µM
same,TGI,[12],19.7 µM
same,GI50,[13],16.7 µM
same,TGI,[13],30.3 µM
same,GI50,[14],11.7 µM
same,TGI,[14],27.1 µM
same,GI50,[15],12.2 µM
same,TGI,[15],24.9 µM
same,GI50,[16],7.69 µM
same,TGI,[16],20.7 µM
same,GI50,[17],21.8 µM
same,TGI,[17],64.9 µM
same,GI50,[18],17.9 µM
same,TGI,[18],34.6 µM
same,GI50,[19],18.4 µM
same,TGI,[19],39 µM
same,GI50,[20],10.5 µM
same,TGI,[20],22.3 µM
same,GI50,[21],14.1 µM
same,TGI,[21],27.1 µM
same,GI50,[22],10.2 µM
same,TGI,[22],22.2 µM
same,GI50,[23],15.5 µM
same,TGI,[23],47 µM
same,GI50,[24],11.5 µM
same,TGI,[24],25.1 µM
same,GI50,[25],18.5 µM
same,TGI,[25],34.4 µM
same,GI50,[26],15.9 µM
same,TGI,[26],32.3 µM
same,GI50,[27],16.1 µM
same,TGI,[27],31 µM
same,GI50,[28],13.1 µM
same,TGI,[28],26.4 µM
same,GI50,[29],18.8 µM
same,TGI,[29],37.4 µM
same,GI50,[30],12.5 µM
same,TGI,[30],28.3 µM
same,GI50,[31],12.1 µM
same,TGI,[31],24.5 µM
same,GI50,[32],3.03 µM
same,TGI,[32],14 µM
same,GI50,[33],11.6 µM
same,TGI,[33],24.1 µM
same,GI50,[34],14.9 µM
same,TGI,[34],28.1 µM
same,GI50,[35],14.1 µM
same,TGI,[35],27.1 µM
same,GI50,[36],17.3 µM
same,TGI,[36],33.9 µM
same,GI50,[37],15.2 µM
same,TGI,[37],29.7 µM
same,GI50,[38],14.3 µM
same,TGI,[38],28.9 µM
same,GI50,[39],4.6 µM
same,TGI,[39],15.6 µM
same,GI50,[40],3.82 µM
same,TGI,[40],14.1 µM
same,GI50,[41],3.13 µM
same,TGI,[41],9.66 µM
same,GI50,[42],4.31 µM
same,TGI,[42],15.9 µM
same,GI50,[43],4.29 µM
same,TGI,[43],30.6 µM
same,GI50,[44],15.9 µM
same,TGI,[44],29.4 µM
same,GI50,[45],10.9 µM
same,TGI,[45],22.9 µM
same,GI50,[46],17.5 µM
same,TGI,[46],32 µM
same,GI50,[47],14.6 µM
same,TGI,[47],27.7 µM
same,GI50,[48],3.04 µM
same,TGI,[48],10.5 µM
same,GI50,[49],8.93 µM
same,TGI,[49],21.7 µM
same,GI50,[50],5.7 µM
same,TGI,[50],30.2 µM
same,GI50,[51],15 µM
same,TGI,[51],32.7 µM
same,GI50,[52],12 µM
same,TGI,[52],26.7 µM
same,GI50,[53],10.1 µM
same,TGI,[53],21.7 µM
same,GI50,[54],14.5 µM
same,TGI,[54],28.8 µM
same,GI50,[55],8.45 µM
same,TGI,[55],21.7 µM
same,GI50,[56],15.1 µM
same,TGI,[56],28.3 µM
same,GI50,[57],2.13 µM
same,TGI,[57],15.1 µM
same,GI50,[58],3.52 µM
same,TGI,[58],> 100 µM
same,GI50,[59],16 µM
same,TGI,[59],29.5 µM
